Data reported in US20230026232A1, “AHR INHIBITORS AND USES THEREOF” (Ikena Oncology, Inc., priority 2019, published 2023).

Columns and labels:
[1] = Phase 1 dose-escalation study: interim cohort pharmacokinetics; format: in vivo, human; conditions: for dose proportionality of PK: Cycle 2 Day 1 (C2D1)
Method: Serial blood samples are obtained to characterize the plasma PK of Compound A and its major active metabolites. The initial sampling strategy is based on the predicted human PK of this compound. If in the course of evaluating the PK, it is determined that an alternative sampling scheme would be more informative, then that alternative sampling scheme may be implemented if the total amount of blood and blood draws obtained for PK is not increased. Moreover, the total number of samples may be decreased at any time if the initial sampling scheme is considered unnecessarily intensive.
Interim cohort pharmacokinetics were assessed on parent (Compound A) and two active metabolites (Compound B and Compound C). […] Compound B metabolite ratio is increased on C2D1 in cohorts above 200 mg dosages. […] Without wishing to be bound or limited by theory, elimination rate limited kinetics likely contributing to the accumulation of Compound B through on-target inhibition of CYP1A1.

AHR = target: T1, AHR (Homo sapiens, UniProt P35869); test: HepG2 DRE-Luc reporter assay, VAF347-stimulated luciferase expression; format: cell-based; set-up: endogenous in cells; host or cells: HepG2 DRE-Luc reporter cell line; conditions: 80 nM VAF347, n=2
T1 sequence (P35869 11-848): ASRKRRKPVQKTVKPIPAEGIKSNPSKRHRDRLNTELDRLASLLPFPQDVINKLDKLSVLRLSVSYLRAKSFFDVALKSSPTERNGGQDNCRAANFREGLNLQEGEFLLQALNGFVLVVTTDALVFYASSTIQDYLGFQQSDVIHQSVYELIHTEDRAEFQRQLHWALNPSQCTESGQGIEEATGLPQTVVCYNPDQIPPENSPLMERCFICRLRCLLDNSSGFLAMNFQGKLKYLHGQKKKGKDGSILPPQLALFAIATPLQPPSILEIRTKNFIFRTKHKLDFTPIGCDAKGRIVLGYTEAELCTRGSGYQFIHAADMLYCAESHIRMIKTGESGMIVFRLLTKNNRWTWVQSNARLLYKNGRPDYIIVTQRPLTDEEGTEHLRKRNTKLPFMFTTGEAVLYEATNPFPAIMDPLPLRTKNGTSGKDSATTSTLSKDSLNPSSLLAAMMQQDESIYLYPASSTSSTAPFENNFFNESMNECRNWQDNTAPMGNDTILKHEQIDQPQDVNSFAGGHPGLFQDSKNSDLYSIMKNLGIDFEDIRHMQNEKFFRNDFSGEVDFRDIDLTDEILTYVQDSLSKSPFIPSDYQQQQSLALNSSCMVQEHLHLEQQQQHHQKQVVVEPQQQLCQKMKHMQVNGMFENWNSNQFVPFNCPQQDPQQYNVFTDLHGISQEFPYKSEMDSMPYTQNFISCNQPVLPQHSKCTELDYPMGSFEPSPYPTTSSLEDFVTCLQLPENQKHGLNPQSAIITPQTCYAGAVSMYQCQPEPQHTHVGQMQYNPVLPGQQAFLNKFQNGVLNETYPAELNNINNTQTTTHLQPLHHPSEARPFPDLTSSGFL
Method: In vitro experiments were conducted to examine the inhibitory activity of Compound A for AHR-mediated transcriptional activation in the HepG2 DRE-Luc reporter cell line. This human hepatoma cell line stably expresses a luciferase reporter gene under control of AHR-responsive DRE enhancer elements (Han, 2004). HepG2 DRE-Luc reporter cells were treated with 80 nM VAF347 to activate AHR.
The inhibitory activity of the human Compound A metabolites, Compound B and Compound C was also determined in the HepG2 DRE-Luc cell line. Reporter cells were stimulated with 80 nM VAF347 and each metabolite at multiple concentrations.

| SMILES | ratio to Compound A on C2D1 ([1]; 400 mg and 800 mg dose) | dose proportionality of PK [1] | accumulation with repeat dosing ([1]; repeat dosing above 200 mg) | AUC compared with Compound A ([1]; repeated dosing, 2/3 subjects at 400 and 800 mg) | IC50 (AHR) [nM] | ratio to Compound A (AUC) ([1]; 400 mg and 800 mg dose) |
| --- | --- | --- | --- | --- | --- | --- |
| CC(C)(O)c1cnn2c(N[C@@H]3CCc4[nH]c5ccccc5c4C3)nc(-c3cncc(F)c3)nc12 [Compound B] | 1.3-1.4 × parent | greater than dose proportional | Accumulation of Compound B observed | greater than Compound A | 23 |  |
| C=C(C)c1cnn2c(N[C@@H]3CCc4[nH]c5ccccc5c4C3)nc(-c3cncc(F)c3)nc12 [Compound C] |  | greater than dose proportional |  |  | 213 | 15-20 % of parent |
